Measured values published in patent EP0908457B1, “3-(1,2-benzisothiazol- and isoxazol-5-Y1)-2,4(1H,3H)-pyrimidinedione or thione and 3-(1,2-benzisothiazol- and isoxazol-5-y1)-4(3H)-pyrimidinone or thione herbicidal agents” (BASF AKTIENGESELLSCHAFT, priority 1997, dated 1999).

How the values were obtained:
Assay type in all cases: in vivo
Sagittaria pygmaea, L. = experiment: Preemergence weed control under flooded paddy conditions, SAGPY (Arrowhead (Pygmaea)); settings: preemergence, flooded paddy, rated three to four weeks after treatment
[1] = test system: Monochoria vaginalis, Presl.; experiment: Preemergence weed control under flooded paddy conditions, MOOVA (Monochoria); settings: preemergence, flooded paddy, rated three to four weeks after treatment
[2] = test system: Echinochloa oryzoides (Ard.) Fritsch.; experiment: Preemergence weed control under flooded paddy conditions, ECHORC (Watergrass (Calif.)); settings: preemergence, flooded paddy, rated three to four weeks after treatment
[3] = test system: Cyperus serotinus, Rottb.; experiment: Preemergence weed control under flooded paddy conditions, CYPSE (Flatsedge); settings: preemergence, rated three to four weeks after treatment
Cyperus iria = experiment: Preemergence weed control under flooded paddy conditions, CYPIR (Rice Flatsedge); settings: preemergence, flooded paddy, rated three to four weeks after treatment

| SMILES | SAGPY herbicidal rating (Sagittaria pygmaea, L.; 0.0320 kg/ha) | SAGPY herbicidal rating (Sagittaria pygmaea, L.; 0.0620 kg/ha) | SAGPY herbicidal rating (Sagittaria pygmaea, L.; 0.1250 kg/ha) | SAGPY herbicidal rating (Sagittaria pygmaea, L.; 0.2500 kg/ha) | MOOVA herbicidal rating ([1]; 0.0320 kg/ha) | MOOVA herbicidal rating ([1]; 0.0620 kg/ha) | MOOVA herbicidal rating ([1]; 0.1250 kg/ha) | MOOVA herbicidal rating ([1]; 0.2500 kg/ha) | ECHORC herbicidal rating ([2]; 0.0320 kg/ha) | ECHORC herbicidal rating ([2]; 0.0620 kg/ha) | ECHORC herbicidal rating ([2]; 0.1250 kg/ha) | ECHORC herbicidal rating ([2]; 0.2500 kg/ha) | CYPSE herbicidal rating ([3]; 0.0320 kg/ha) | CYPSE herbicidal rating ([3]; 0.1250 kg/ha) | CYPSE herbicidal rating ([3]; 0.2500 kg/ha) | CYPIR herbicidal rating (Cyperus iria; 0.0320 kg/ha) | CYPIR herbicidal rating (Cyperus iria; 0.0620 kg/ha) | CYPIR herbicidal rating (Cyperus iria; 0.1250 kg/ha) | CYPIR herbicidal rating (Cyperus iria; 0.2500 kg/ha) | CYPSE herbicidal rating ([3]; 0.0620 kg/ha) |
| --- | --- | --- | --- | --- | --- | --- | --- | --- | --- | --- | --- | --- | --- | --- | --- | --- | --- | --- | --- | --- |
| Cn1c(C(F)(F)F)cc(=O)n(-c2ccc3snc(COC(=O)c4ccno4)c3c2)c1=O [Example 475, 2,4(1H,3H)-Pyrimidinedione, 3-[3-(hydroxymethyl)-1,2-benzisothiazol-5-yl]-1-methyl-6-(trifluoromethyl)-, 5-isoxazolecarboxylate (ester)] | 0.0 | 4.0 | 6.0 | 7.0 | 9.0 | 9.0 | 9.0 | 9.0 | 0.0 | 0.0 | 2.0 | 3.0 | 0.0 | 5.0 | 7.0 | 4.0 | 6.0 | 9.0 | 9.0 | – |
| Cn1c(C(F)(F)F)cc(=O)n(-c2ccc3snc(COC(=O)c4ccc([N+](=O)[O-])o4)c3c2)c1=O [Example 476, 2,4(1H,3H)-Pyrimidinedione, 3-[3-(hydroxymethyl)-1,2-benzisothiazol-5-yl]-1-methyl-6-(trifluoromethyl)-, 5-nitro-2-furoate (ester)] | 0.0 | 2.0 | 4.0 | 5.0 | 5.0 | 6.0 | 6.0 | 9.0 | 0.0 | 2.0 | 2.0 | 3.0 | 0.0 | 3.0 | 6.0 | 4.0 | 4.0 | 9.0 | 9.0 | – |
| Cn1c(C(F)(F)F)cc(=O)n(-c2ccc3snc(COC(=O)c4cccs4)c3c2)c1=O [Example 477, 2,4(1H,3H)-Pyrimidinedione, 3-[3-(hydroxymethyl)-1,2-benzisothiazol-5-yl]-1-methyl-6-(trifluoromethyl)-, 2-thiophenecarboxylate (ester)] | 0.0 | 0.0 | 0.0 | 2.0 | 3.0 | 3.0 | 6.0 | 7.0 | 0.0 | 0.0 | 2.0 | 3.0 | 3.0 | – | 3.0 | 4.0 | 4.0 | 5.0 | 6.0 | 3.0 |
| Cn1c(C(F)(F)F)cc(=O)n(-c2ccc3snc(COC(=O)c4cccnc4Cl)c3c2)c1=O [Example 480, 2,4(1H,3H)-Pyrimidinedione, 3-[3-(hydroxymethyl)-1,2-benzisothiazol-5-yl]-1-methyl-6-(trifluoromethyl)-, 2-chloronicotinate (ester)] | 0.0 | 3.0 | 5.0 | 6.0 | 7.0 | 9.0 | 9.0 | 9.0 | 0.0 | 2.0 | 5.0 | 6.0 | 3.0 | 3.0 | – | 6.0 | 9.0 | 9.0 | 9.0 | – |
| Cn1c(C(F)(F)F)cc(=O)n(-c2ccc3snc(COC(=O)c4ccc(Cl)nc4)c3c2)c1=O [Example 481, 2,4(1H,3H)-Pyrimidinedione, 3-[3-(hydroxymethyl)-1,2-benzisothiazol-5-yl]-1-methyl-6-(trifluoromethyl)-, 6-chloronicotinate (ester)] | 0.0 | 0.0 | 0.0 | – | 6.0 | 7.0 | 7.0 | 9.0 | 0.0 | 2.0 | 9.0 | 9.0 | – | – | 6.0 | 0.0 | 2.0 | 6.0 | 9.0 | – |
| Cn1c(C(F)(F)F)cc(=O)n(-c2ccc3snc(COC(=O)C4CC4)c3c2)c1=O [Example 496, 2,4(1H,3H)-Pyrimidinedione, 3-[3-(hydroxymethyl)-1,2-benzisothiazol-5-yl]-1-methyl-6-(trifluoromethyl)-, cyclopropanecarboxylate (ester)] | 0.0 | 0.0 | 3.0 | 6.0 | 0.0 | 6.0 | 6.0 | 8.0 | 4.0 | 4.0 | 6.0 | 7.0 | – | – | 7.0 | 0.0 | 7.0 | 7.0 | 9.0 | – |
| Cn1c(C(F)(F)F)cc(=O)n(-c2ccc3snc(COC(=O)c4ccco4)c3c2)c1=O [Example 497, 2,4(1H,3H)-Pyrimidinedione, 3-[3-(hydroxymethyl)-1,2-benzisothiazol-5-yl]-1-methyl-6-(trifluoromethyl)-, 2-furoate (ester)] | 0.0 | 0.0 | 2.0 | 6.0 | 6.0 | 7.0 | 9.0 | 9.0 | 0.0 | 0.0 | 4.0 | 7.0 | – | 6.0 | 9.0 | 5.0 | 6.0 | 9.0 | 9.0 | – |
| Cn1c(C(F)(F)F)cc(=O)n(-c2ccc3snc(COC(=O)C(C)(C)C)c3c2)c1=O [Example 498, 2,4(1H,3H)-Pyrimidinedione, 3-[3-(hydroxymethyl)-1,2-benzisothiazol-5-yl]-1-methyl-6-(trifluoromethyl)-, pivalate (ester)] | 0.0 | 0.0 | 3.0 | 6.0 | 4.0 | 5.0 | 7.0 | 8.0 | 0.0 | 3.0 | 5.0 | 6.0 | – | 0.0 | – | 2.0 | 5.0 | 9.0 | 9.0 | – |
| COc1ccc(CC(=O)OCc2nsc3ccc(-n4c(=O)cc(C(F)(F)F)n(C)c4=O)cc23)cc1OC [Example 502, 2,4(1H,3H)-Pyrimidinedione, 3-[3-(hydroxymethyl)-1,2-benzisothiazol-5-yl]-1-methyl-6-(trifluoromethyl)-, (3,4-dimethoxyphenyl)acetate (ester)] | 0.0 | 2.0 | 5.0 | 9.0 | 6.0 | 6.0 | 7.0 | 9.0 | 3.0 | 3.0 | 5.0 | 7.0 | 0.0 | – | 5.0 | 4.0 | 6.0 | 9.0 | 9.0 | 2.0 |
| COc1ccc(OC)c(CC(=O)OCc2nsc3ccc(-n4c(=O)cc(C(F)(F)F)n(C)c4=O)cc23)c1 [Example 503, 2,4(1H,3H)-Pyrimidinedione, 3-[3-(hydroxymethyl)-1,2-benzisothiazol-5-yl]-1-methyl-6-(trifluoromethyl)-, (2,5-dimethoxyphenyl)acetate (ester)] | 0.0 | 3.0 | 4.0 | 8.0 | 7.0 | 9.0 | 9.0 | 9.0 | 2.0 | 4.0 | 6.0 | 6.0 | – | 5.0 | 6.0 | 0.0 | 6.0 | 9.0 | 7.0 | – |
